Assay [1] relates to Nucleic Acid. Put plainly: Binding constant towards GC-rich calf thymus DNA hairpin. The class given is nucleic-acid assay. As to conditions: Bos taurus.
For assay [2], the system named is Nucleic Acid. Put plainly: Binding constant towards AT-rich calf thymus DNA hairpin. In kind it is nucleic-acid assay. As to conditions: Bos taurus.

In the case of `COCCOCCOCCCNCCC(=O)Nc1ccc2c(c1)C(=O)c1ccc(NC(=O)CCNCCCOCCOCCOC)cc1C2=O`, the figures for the K in assay [1] and in assay [2] were 110000 M⁻¹ and 250000 M⁻¹, respectively.
Regarding `COCCOCCOCCOCCCNCCC(=O)Nc1ccc2c(c1)C(=O)c1ccc(NC(=O)CCNCCCOCCOCCOCCOC)cc1C2=O`, the K was found to be 90000 M⁻¹ in assay [1] and 190000 M⁻¹ in assay [2].
For `COCCOCCCNCCC(=O)Nc1ccc2c(c1)C(=O)c1ccc(NC(=O)CCNCCCOCCOC)cc1C2=O`, the K in assay [1] was 220000 M⁻¹; in assay [2], 550000 M⁻¹.
For the molecule `COCCCNCCC(=O)Nc1ccc2c(c1)C(=O)c1ccc(NC(=O)CCNCCCOC)cc1C2=O`, the values for the K in assay [1] and in assay [2] were 310000 M⁻¹ and 760000 M⁻¹, respectively.

The record behind these values is ChEMBL document CHEMBL1146831, “Binding of a homologous series of anthraquinones to DNA” (Bioorg Med Chem Lett, 2004).
